Test [1] concerns the target T1, TCPTP in the arcuate nucleus of the hypothalamus (Mus musculus, UniProt Q06180).
T1 construct: endogenous in cells; host or cells: arcuate nucleus of the hypothalamus of living high fat fed Ptpn2fl/fl mice
T1 sequence (Q06180 1-406): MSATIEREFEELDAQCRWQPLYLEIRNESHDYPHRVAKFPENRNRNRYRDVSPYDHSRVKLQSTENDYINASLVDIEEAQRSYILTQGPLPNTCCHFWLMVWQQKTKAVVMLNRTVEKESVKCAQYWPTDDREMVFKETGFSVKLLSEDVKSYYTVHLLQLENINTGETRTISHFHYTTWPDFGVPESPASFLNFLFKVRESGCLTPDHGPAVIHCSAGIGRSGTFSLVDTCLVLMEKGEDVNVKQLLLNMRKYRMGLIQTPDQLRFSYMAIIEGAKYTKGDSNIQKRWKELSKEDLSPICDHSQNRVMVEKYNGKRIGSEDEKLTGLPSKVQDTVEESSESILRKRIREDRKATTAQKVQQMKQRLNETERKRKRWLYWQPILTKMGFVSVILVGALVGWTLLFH
Description: Celastrol i.p. for 10 days in high fat fed Ptpn2fl/fl mice, rAAV-Cre-eGFP vs rAAV-eGFP in ARC. Format: in vivo. As to conditions: mice lacking TCPTP in the ARC; 20 ug/ml i.p., 10 consecutive days. As for the experimental part: 12-week high fat fed Ptpn2^fl/fl male mice were bilateral injected with rAAV-eGFP or rAAV-Cre-eGFP into the arcuate nucleus of the hypothalamus (ARC). Two-week post AAV administration mice received Celastrol (20 ug/ml, i.p.) for 10 consecutive days and effects on a-b) Body weights, b-c) food intake, e-f) adiposity and lean mass (EchoMRI) was determined.

Test [2] deals with T2, PTP1B in the arcuate nucleus of the hypothalamus (Mus musculus, UniProt P35821).
T2 construct: endogenous in cells; host or cells: arcuate nucleus of the hypothalamus of living high fat fed Ptpn1fl/fl mice
T2 sequence (P35821 1-432): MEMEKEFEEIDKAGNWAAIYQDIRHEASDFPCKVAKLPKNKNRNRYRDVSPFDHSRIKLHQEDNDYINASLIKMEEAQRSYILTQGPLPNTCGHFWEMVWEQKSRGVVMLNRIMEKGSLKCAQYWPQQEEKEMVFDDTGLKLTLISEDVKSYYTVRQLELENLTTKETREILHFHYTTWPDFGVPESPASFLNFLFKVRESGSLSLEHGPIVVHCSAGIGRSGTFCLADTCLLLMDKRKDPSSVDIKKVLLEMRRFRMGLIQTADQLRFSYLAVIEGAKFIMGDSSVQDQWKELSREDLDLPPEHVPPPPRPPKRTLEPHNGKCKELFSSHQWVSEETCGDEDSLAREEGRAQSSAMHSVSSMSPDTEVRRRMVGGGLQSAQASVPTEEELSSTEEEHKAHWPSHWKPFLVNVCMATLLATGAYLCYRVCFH
Nature of the test: Celastrol i.p. for 10 days in high fat fed Ptpn1fl/fl mice, rAAV-Cre-eGFP vs rAAV-eGFP in ARC. Format: in vivo. The following applies: mice lacking PTP1B in the ARC; 20 μg/ml i.p., 10 consecutive days. As for the experimental part: FIG. 30. […] 12-week high fat fed Ptpn1^fl/fl male mice were bilateral injected with rAAV-eGFP or rAAV-Cre-eGFP into the arcuate nucleus of the hypothalamus (ARC). Two-week post AAV administration mice received Celastrol (20 μg/ml, i.p.) for 10 consecutive days and effects on a-b) Body weights, c-d) food intake, e-f) adiposity and lean mass (EchoMRI) was determined.

Test [3] has as its system PTP1B and TCPTP in the arcuate nucleus of the hypothalamus. Nature of the test: Celastrol i.p. for 10 days in high fat fed Ptpn1fl/fl: Ptpn2fl/fl mice, rAAV-Cre-eGFP vs rAAV-eGFP in ARC. Format: in vivo, mouse. As to conditions: mice lacking PTP1B and TCPTP in the ARC; 20 μg/ml i.p., 10 consecutive days. As for the experimental part: FIG. 28 The ability of celastrol to promote weight loss in obese mice is abrogated in mice lacking PTP1B and TCPTP in the arcuate nucleus of the hypothalamus. 12-week high fat fed Ptpn1^fl/fl: Ptpn2^fl/fl male mice were bilateral injected with rAAV-eGFP or rAAV-Cre-eGFP into the arcuate nucleus of the hypothalamus (ARC). Two-week post AAV administration mice received Celastrol (20 μg/ml, i.p.) for 10 consecutive days and effects on a) Body weights, b) food intake, c-d) adiposity and lean mass (EchoMRI) was determined

Take `CC1=C(O)C(=O)C=C2C1=CC=C1[C@@]2(C)CC[C@@]2(C)[C@@H]3C[C@](C)(C(=O)O)CC[C@]3(C)CC[C@]12C` [celastrol]: the results for the “ability to promote weight loss in obese mice” value in test [1], in test [2] and in test [3] were “partially attenuated”, “partially attenuated” and “abrogated”, respectively.

The values above are taken from patent US11273166B2, “Methods and compositions for the treatment of obesity” (Monash University, priority 2017, dated 2022).
